How the values were obtained:
Test in all cases: relative viability (nuclei count vs DMSO), 5 days (fraction); higher = more cells survive
[1] = tested on: LCLC-103H
In short: (§1)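 Values are medians from duplicate plates. Each reflects relative viability, defined as the nuclei count of treated wells over that of vehicle wells. Lung cancer cell lines in 1536-well plates were pin-tool dosed one day after seeding with one drug alone or with a fixed anchor-drug dose plus five library-drug doses (not always all listed) in √10 steps, then fixed, stained and imaged at 4× after 5 days.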

[2] = tested on: NCI-H441
In short: as §1

[3] = tested on: 201T
In short: as §1

[4] = tested on: NCI-H596
In short: as §1

[5] = tested on: LOU-NH91
In short: as §1

[6] = tested on: NCI-H2126
In short: as §1

[7] = tested on: NCI-H2023
In short: as §1

[8] = tested on: NCI-H522
In short: as §1

[9] = tested on: HCC-44
In short: as §1

[10] = tested on: NCI-H2087
In short: as §1

[11] = tested on: NCI-H2347
In short: as §1

[12] = tested on: NCI-H1993
In short: as §1

[13] = tested on: NCI-H1395
In short: as §1

[14] = tested on: NCI-H23
In short: as §1

[15] = tested on: NCI-H650
In short: as §1

[16] = tested on: NCI-H2009
In short: as §1

[17] = tested on: HARA
In short: as §1

[18] = tested on: EMC-BAC-2
In short: as §1

[19] = tested on: NCI-H647
In short: as §1

[20] = tested on: NCI-H1666
In short: as §1

[21] = tested on: NCI-H838
In short: as §1

[22] = tested on: NCI-H3122
In short: as §1

[23] = tested on: BEN
In short: as §1

## COc1cc(N2CCC(C(N)=O)CC2)ccc1Nc1nc(N)c(Cl)c(Nc2ccccc2S(=O)(=O)C(C)C)n1 [HG-5-88-01] + Nc1nc2[nH]cc(CCc3ccc(C(=O)N[C@@H](CCC(=O)O)C(=O)O)cc3)c2c(=O)[nH]1 [Pemetrexed] (partner 0.2 µM)
[1]; first compound 0.04 µM
  relative viability: 0.443
[1]; first compound 0.1265 µM
  relative viability: 0.505
[1]; first compound 0.4 µM
  relative viability: 0.462
[1]; first compound 1.265 µM
  relative viability: 0.492
[1]; first compound 4 µM
  relative viability: 0.33
[2]; first compound 0.04 µM
  relative viability: 0.28
[2]; first compound 0.1265 µM
  relative viability: 0.279
[2]; first compound 0.4 µM
  relative viability: 0.229
[2]; first compound 1.265 µM
  relative viability: 0.276
[2]; first compound 4 µM
  relative viability: 0.258
[3]; first compound 0.04 µM
  relative viability: 0.301
[3]; first compound 0.1265 µM
  relative viability: 0.325
[3]; first compound 1.265 µM
  relative viability: 0.332
[3]; first compound 4 µM
  relative viability: 0.272
[4]; first compound 0.04 µM
  relative viability: 0.499
[4]; first compound 0.1265 µM
  relative viability: 0.548
[4]; first compound 0.4 µM
  relative viability: 0.478
[4]; first compound 1.265 µM
  relative viability: 0.482
[4]; first compound 4 µM
  relative viability: 0.441
[5]; first compound 0.04 µM
  relative viability: 0.38
[5]; first compound 0.1265 µM
  relative viability: 0.44
[5]; first compound 0.4 µM
  relative viability: 0.376
[5]; first compound 1.265 µM
  relative viability: 0.456
[5]; first compound 4 µM
  relative viability: 0.522
[6]; first compound 0.04 µM
  relative viability: 0.644
[6]; first compound 0.1265 µM
  relative viability: 0.667
[6]; first compound 0.4 µM
  relative viability: 0.68
[6]; first compound 1.265 µM
  relative viability: 0.641
[6]; first compound 4 µM
  relative viability: 0.452
[7]; first compound 0.04 µM
  relative viability: 0.231
[7]; first compound 0.1265 µM
  relative viability: 0.23
[7]; first compound 0.4 µM
  relative viability: 0.175
[7]; first compound 1.265 µM
  relative viability: 0.165
[7]; first compound 4 µM
  relative viability: 0.171
[8]; first compound 0.04 µM
  relative viability: 0.967
[8]; first compound 0.1265 µM
  relative viability: 0.969
[8]; first compound 0.4 µM
  relative viability: 1.01
[8]; first compound 1.265 µM
  relative viability: 0.841
[8]; first compound 4 µM
  relative viability: 0.783
[9]; first compound 0.04 µM
  relative viability: 0.596
[9]; first compound 0.1265 µM
  relative viability: 0.662
[9]; first compound 0.4 µM
  relative viability: 0.538
[9]; first compound 1.265 µM
  relative viability: 0.699
[9]; first compound 4 µM
  relative viability: 0.69
[10]; first compound 0.04 µM
  relative viability: 0.664
[10]; first compound 0.1265 µM
  relative viability: 0.689
[10]; first compound 0.4 µM
  relative viability: 0.67
[10]; first compound 1.265 µM
  relative viability: 0.651
[10]; first compound 4 µM
  relative viability: 0.715
[11]; first compound 0.04 µM
  relative viability: 0.413
[11]; first compound 0.1265 µM
  relative viability: 0.399
[11]; first compound 0.4 µM
  relative viability: 0.433
[11]; first compound 1.265 µM
  relative viability: 0.424
[11]; first compound 4 µM
  relative viability: 0.441
[12]; first compound 0.04 µM
  relative viability: 0.56
[12]; first compound 0.1265 µM
  relative viability: 0.577
[12]; first compound 0.4 µM
  relative viability: 0.552
[12]; first compound 4 µM
  relative viability: 0.554
[13]; first compound 0.04 µM
  relative viability: 0.825
[13]; first compound 0.1265 µM
  relative viability: 0.923
[13]; first compound 0.4 µM
  relative viability: 0.751
[13]; first compound 1.265 µM
  relative viability: 1.05
[13]; first compound 4 µM
  relative viability: 0.753
[14]; first compound 0.04 µM
  relative viability: 0.678
[14]; first compound 0.1265 µM
  relative viability: 0.77
[14]; first compound 0.4 µM
  relative viability: 0.592
[14]; first compound 1.265 µM
  relative viability: 0.56
[14]; first compound 4 µM
  relative viability: 0.385
[15]; first compound 0.04 µM
  relative viability: 0.985
[15]; first compound 0.1265 µM
  relative viability: 0.91
[15]; first compound 0.4 µM
  relative viability: 0.844
[15]; first compound 1.265 µM
  relative viability: 0.896
[15]; first compound 4 µM
  relative viability: 0.476
[16]; first compound 0.04 µM
  relative viability: 1.01
[16]; first compound 0.1265 µM
  relative viability: 1.03
[16]; first compound 0.4 µM
  relative viability: 0.959
[16]; first compound 1.265 µM
  relative viability: 0.963
[16]; first compound 4 µM
  relative viability: 0.975
[17]; first compound 0.04 µM
  relative viability: 0.221
[17]; first compound 0.1265 µM
  relative viability: 0.225
[17]; first compound 0.4 µM
  relative viability: 0.199
[17]; first compound 1.265 µM
  relative viability: 0.24
[17]; first compound 4 µM
  relative viability: 0.201
[18]; first compound 0.04 µM
  relative viability: 0.416
[18]; first compound 0.1265 µM
  relative viability: 0.432
[18]; first compound 0.4 µM
  relative viability: 0.385
[18]; first compound 1.265 µM
  relative viability: 0.461
[18]; first compound 4 µM
  relative viability: 0.477
[19]; first compound 0.04 µM
  relative viability: 0.159
[19]; first compound 0.1265 µM
  relative viability: 0.194
[19]; first compound 1.265 µM
  relative viability: 0.184
[19]; first compound 4 µM
  relative viability: 0.157
[20]; first compound 0.04 µM
  relative viability: 0.893
[20]; first compound 0.1265 µM
  relative viability: 0.762
[20]; first compound 0.4 µM
  relative viability: 0.828
[20]; first compound 1.265 µM
  relative viability: 0.732
[20]; first compound 4 µM
  relative viability: 0.592
[21]; first compound 0.04 µM
  relative viability: 0.248
[21]; first compound 0.1265 µM
  relative viability: 0.256
[21]; first compound 0.4 µM
  relative viability: 0.209
[21]; first compound 1.265 µM
  relative viability: 0.234
[21]; first compound 4 µM
  relative viability: 0.246
[22]; first compound 0.04 µM
  relative viability: 0.171
[22]; first compound 0.1265 µM
  relative viability: 0.161
[22]; first compound 0.4 µM
  relative viability: 0.144
[22]; first compound 1.265 µM
  relative viability: 0.157
[22]; first compound 4 µM
  relative viability: 0.115
[23]; first compound 0.04 µM
  relative viability: 0.76
[23]; first compound 0.1265 µM
  relative viability: 0.648
[23]; first compound 0.4 µM
  relative viability: 0.717
[23]; first compound 1.265 µM
  relative viability: 0.687
[23]; first compound 4 µM
  relative viability: 0.711
